Values quoted from earlier work in patent US20110143366A1, “PROTEIN BIOMARKERS FOR IN VITRO TESTING OF DEVELOPMENTAL TOXICITY AND ENBRYOTOXICITY OF CHEMICAL SUBSTANCES” (PROTEOSYS AG, priority 2008, published 2011).

Tested on: Cardiomyocytes differentiated from murine embryonic stem cells (EST model)
Details: substances with known embryotoxic potency used in the EST model

Structure (SMILES) | Embryotoxicity class of the substance
CCN(CC)CCNC(=O)c1cc(Cl)c(N)cc1OC [metoclopramide] | non-embryotoxic
CC(C)(S)[C@@H](N)C(=O)O [D-penicillamine] | non-embryotoxic
CN(C)CCOC(C)(c1ccccc1)c1ccccn1 (centres unmarked) [doxylamine] | non-embryotoxic
N#CCCN [β-aminoproprionitril] | non-embryotoxic
CC[C@H](C)C(=O)O[C@H]1C[C@@H](C)C=C2C=C[C@H](C)[C@H](CC[C@@H]3C[C@@H](O)CC(=O)O3)[C@H]21 [Lovastatin] | highly embryotoxic
O=[N+]([O-])c1ccc(Oc2ccc(Cl)cc2Cl)cc1 [Nitrofen] | highly embryotoxic
CC[C@H](C)C(=O)O[C@H]1C[C@H](O)C=C2C=C[C@H](C)[C@H](CC[C@@H](O)C[C@@H](O)CC(=O)O)[C@H]21 [pravastatin] | moderately embryotoxic
C[C@@H]1Cc2c(Cl)cc(C(=O)N[C@@H](Cc3ccccc3)C(=O)O)c(O)c2C(=O)O1 [Ochratoxin, Ochratoxin-A] | highly embryotoxic
